Converted amounts (≈) assume the structure as drawn. Structures can show the parent of a compound that is named as a salt. Where two headings read alike, the source gives them in different places.
Legend:
[1] = Equilibrium solubility in water for 24 hours; format: physicochemical
Protocol: Investigating the equilibrium solubility of each hydrochloride crystal form of Compound A in water for 24 hours.
Excess samples of hydrochloride crystal form I and hydrochloride crystal form II of Compound A were weighed and placed in different 10 mL centrifuge tubes, and 1 mL of deionized water was added, sealed with a parafilm, shaking at a constant temperature of 37°C and 150 rpm for 24 hours; after passing through a 0.45 µm organic filter, the sample was diluted and injected for HPLC analysis.

[2] = Solution stability at different pH (HPLC content, 0-24 hours); format: physicochemical; conditions: after 24 hours at pH 1.0, 3.0, 5.0 and 7.0
Protocol: Investigating the solution stability of each hydrochloride crystal form of Compound A.
Solutions with pH of 1.0, 3.0, 5.0, and 7.0 solutions were prepared using hydrochloric acid, phosphoric acid, and sodium hydroxide. Appropriate amounts of hydrochloride crystal form I and hydrochloride crystal form II of Compound A were accurately weighed respectively and added to corresponding 20 mL volumetric flasks and labeled, dissolving in media with different pH, passing through a 0.45 µ m organic filters for HPLC analysis. The content changes of the samples from 0-24 hours were monitor, and the results were calculated.

[3] = Mouse pharmacokinetic experiment, oral gavage; format: in vivo; conditions: ICR mice, 5 mg/kg, plasma
Protocol: The mice were administered by oral gavage, and the plasma concentrations of each hydrochloride crystal form of Compound A in mice were determined, the PK parameters were calculated, and the pharmacokinetics were evaluated.
• (1) Experimental samples: hydrochloride crystal forms I, II, and III of Compound A of the present application, self-made. • (2) Experimental animals: ICR mice, SPF grade, male, Shanghai SLAC Laboratory Animal Co., Ltd.
The compound was administered via oral gavage at a dosage of 5 mg/kg. ICR mice were stratified by body weight and randomly divided into groups of 3 mice each, and fasted overnight before the experiment. Administering according to the prescribed dosage and schedule, and […] of blood was taken from the mandibular vein or saphenous vein of mice by cross sampling at fixed time points to a sample tube containing anticoagulant sodium heparin and placed in wet ice, centrifuging at 4000 r · min^-1 for 10 minutes to separate the plasma for LC-MS analysis.
The measured blood drug concentration-time data was substituted into the Winnonlin 7.0 program to calculate the main pharmacokinetic parameters. Table 3.3: Results of mouse pharmacokinetic experiments

[4] = Solid (chemical) stability under high temperature, high humidity and light; format: physicochemical
Protocol: Investigating the chemical stability of each hydrochloride crystal form of Compound A under high temperature, high humidity, and light conditions.
Appropriate amounts of hydrochloride crystal form I and hydrochloride crystal form II of Compound A were weighed and placed in weighing dishes respectively; three samples for each salt were prepared, and placed respectively in a oven at 60°C, a drying dish with RH 92.5%, and a stability test chamber with an illumination condition of 5000 1x for 85 days. After mixing all samples evenly at day 0, day 10, day 20, and day 85, samples were taken and dissolved in acetonitrile and water, and the content and impurity changes were detected by HPLC-related substance detection method.

[5] = test system: high spontaneous activity induced by PCP in mice; experiment: Inhibition of high spontaneous activity induced by PCP in mice; format: in vivo; conditions: p.o., PCP 5 mg/kg i.p., male C57Bl/6J mice
Protocol: Compounds to be tested: compounds of the examples of the present application, self-made.
That is, animals were transferred from the feeding room to the laboratory, and moved freely in the cage.
(§1) Drug preparation: taking the compound to be tested, adding pure water and performing ultrasonication.
T0 min intraperitoneal injection of modeling drug: 30 minutes after compound administration, the mice were taken out, and administered with PCP (5 mg/kg) by intraperitoneal injection. The blank control group was injected with pure water. After the administration of PCP, the animals were immediately put back into the test box, and the test was continued for 60 minutes.
(§2) The activities of these animals (movement distance in the test box) were automatically recorded by the camera, and analyzed with ANY MAZE software, and the ED50 values were calculated.

5-HT1A receptor = biological target: T1, 5-HT1A receptor (Homo sapiens, UniProt P08908); experiment: 5-HT1A receptor cAMP agonist test; format: cell-based
T1 sequence (P08908 1-422): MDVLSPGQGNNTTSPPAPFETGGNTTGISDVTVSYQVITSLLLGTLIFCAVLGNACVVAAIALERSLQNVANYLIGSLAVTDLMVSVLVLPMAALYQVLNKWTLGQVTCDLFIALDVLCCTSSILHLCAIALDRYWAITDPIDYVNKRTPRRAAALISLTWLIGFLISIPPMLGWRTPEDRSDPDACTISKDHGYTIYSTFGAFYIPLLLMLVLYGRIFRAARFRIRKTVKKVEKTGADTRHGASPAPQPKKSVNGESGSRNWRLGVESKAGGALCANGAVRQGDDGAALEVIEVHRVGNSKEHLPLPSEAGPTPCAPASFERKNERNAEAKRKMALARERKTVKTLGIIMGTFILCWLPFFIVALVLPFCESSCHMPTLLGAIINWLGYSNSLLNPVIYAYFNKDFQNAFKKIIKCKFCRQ
Description: The cAMP detection kit was purchased from Cisbio; the HEK293 cell line stably expressing 5-HT1A receptor was constructed by Shanghai Shujing Biotechnology Co., Ltd.; Serotonin, Forskolin and IBMX were purchased from Sigma; ProxiPlate-384-well plates was purchased from PerkinElmer; HBSS was purchased from Thermo Fisher Scientific.
Activation rate (activity%)=(negative control ratio-compound ratio)/(negative control ratio-positive control ratio)×100%
The EC50 values of the compounds were calculated using the four-parameter fitting model log(agonist)vs. response--Variable slope(four parameters) in Graph Pad Prism.

[6] = test system: high spontaneous activity induced by MK-801 in mice; experiment: Inhibition of high spontaneous activity induced by MK-801 in mice; format: in vivo; conditions: p.o., MK-801 0.3 mg/kg i.p., male C57Bl/6J mice
Protocol: Compounds to be tested: compounds in the examples of the present application, self-made.
3.2.1 Grouping of animals: before the start of the experiment, animals were randomly grouped according to body weight.
3.2.2 Animal adaptation: before the experiment, the mice were first adapted to the experimental environment for at least 1 hour. That is, the animals were transferred from the breeding room to the laboratory and moved freely in the cage.
as §1
The blank control group was injected with normal saline.
as §2

TAAR1 receptor = biological target: T2, TAAR1 receptor (Homo sapiens, UniProt Q96RJ0); experiment: TAAR1 receptor cAMP agonist test; format: cell-based
T2 sequence (Q96RJ0 1-339): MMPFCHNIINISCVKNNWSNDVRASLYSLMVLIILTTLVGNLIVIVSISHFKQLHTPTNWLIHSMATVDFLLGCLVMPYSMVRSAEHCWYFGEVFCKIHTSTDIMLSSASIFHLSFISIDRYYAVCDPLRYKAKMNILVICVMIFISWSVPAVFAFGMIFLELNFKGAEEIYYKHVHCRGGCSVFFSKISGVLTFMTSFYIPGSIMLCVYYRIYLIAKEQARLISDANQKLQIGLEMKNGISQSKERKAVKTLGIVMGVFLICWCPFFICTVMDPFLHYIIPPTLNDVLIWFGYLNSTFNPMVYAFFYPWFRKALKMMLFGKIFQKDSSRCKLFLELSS
Description: The cAMP detection kit was purchased from Cisbio; the […] cell line stably expressing TAAR1 receptor was constructed by Shanghai Shujing Biotechnology Co., Ltd.; IBMX was purchased from Sigma; Phenethylamine (PEA); ProxiPlate-384 well plate was purchased from PerkinElmer; HBSS was purchased from Thermo Fisher Scientific Company.
Activation rate (activity%)=(negative control ratio-compound ratio)/(negative control ratio-positive control ratio)×100%.
The EC50 values of the compounds were calculated using the four-parameter fitting model log(agonist)vs.response--Variable slope(four parameters) in GraphPad Prism.

[7] = Mus musculus, half effective dose

Compound: CNC[C@@H]1OCC2(CC2)c2sccc21 [Hydrochloride crystal form II of Compound A] [(R)-1-(4'H,6'H-spiro[cyclopropane-1,7'-thieno[3,2-c]pyran]-4'-yl)-N-methylmethyl-amine]
- Solubility ([1]; equilibrium solubility in deionized water, 37°C): 162.30 mg/mL
- solution stability [2]: good stability
- AUC(inf) [3]: 1546.6 ng·h/mL
- Cmax [3]: 488.7 ng/mL
- Tmax [3]: 0.5 h
- t1/2 [3]: 2.2 h
- Increase of total impurities (%) day 10 ([4]; High humidity of RH 92.5%): <0.1%
- Increase of total impurities (%) day 20 ([4]; High humidity of RH 92.5%): <0.1%
- Increase of total impurities (%) day 85 ([4]; High humidity of RH 92.5%): 0.145%
- Increase of total impurities (%) day 10 ([4]; High temperature of 60°C): <0.1%
- Increase of total impurities (%) day 20 ([4]; High temperature of 60°C): <0.1%
- Increase of total impurities (%) day 85 ([4]; High temperature of 60°C): 0.133%
- Increase of total impurities (%) day 10 ([4]; Illumination of 5000 lx): <0.1%
- Increase of total impurities (%) day 20 ([4]; Illumination of 5000 lx): <0.1%
- Increase of total impurities (%) day 85 ([4]; Illumination of 5000 lx): <0.1%

Compound: CNC[C@@H]1OCC2(CC2)c2sccc21 [Hydrochloride crystal form I of Compound A] [(R)-1-(4'H,6'H-spiro[cyclopropane-1,7'-thieno[3,2-c]pyran]-4'-yl)-N-methylmethyl-amine]
- solution stability [2]: good stability
- Increase of total impurities (%) day 10 ([4]; High humidity of RH 92.5%): <0.1%
- Increase of total impurities (%) day 20 ([4]; High humidity of RH 92.5%): <0.1%
- Increase of total impurities (%) day 85 ([4]; High humidity of RH 92.5%): 0.199%
- Increase of total impurities (%) day 10 ([4]; High temperature of 60°C): <0.1%
- Increase of total impurities (%) day 20 ([4]; High temperature of 60°C): <0.1%
- Increase of total impurities (%) day 85 ([4]; High temperature of 60°C): 0.182%
- Increase of total impurities (%) day 10 ([4]; Illumination of 5000 lx): <0.1%
- Increase of total impurities (%) day 20 ([4]; Illumination of 5000 lx): <0.1%
- Increase of total impurities (%) day 85 ([4]; Illumination of 5000 lx): <0.1%

Compound: CNC[C@@H]1OCC2(CC2)c2sccc21 [(R)-1-(4'H,6'H-spiro[cyclopropane-1,7'-thieno[3,2-c]pyran]-4'-yl)-N-methylmethyl-amine]
- solubility at 24 h ([1]; deionized water, 37 °C, water, thermodynamic from solid): 155 mg/mL (≈ 740 mM)
- AUC(inf) [3]: 1452.6 ng·h/mL
- Cmax [3]: 480.3 ng/mL
- Tmax [3]: 0.5 h
- t1/2 [3]: 3.6 h
- AUC(0-inf) ([3]; male, ICR, mouse, po): 1930 ng·h/mL
- half-life ([3]; male, ICR, mouse, po): 2.8 h
- Cmax ([3]; male, ICR, mouse, po, read-out: Cmax): 606 ng/mL
- Tmax ([3]; male, mouse, read-out: Tmax): 0.5 h

Compound: CNC[C@@H]1OCC2(CC2)c2sccc21 (single isomer, unassigned) [Compound A]
- ED50 [5, 7]: 0.45 mg/kg
- MED ([5]; minimum effective dose): 0.1 mg/kg
- EC50 (5-HT1A receptor; cAMP agonist assay, HEK293 cell line stably expressing 5-HT1A receptor, Forskolin): 1.04 µM
- 5-HT1A Max Act% (5-HT1A receptor; maximum activation rate relative to Serotonin positive control): 95.2%
- ED50 [6, 7]: 4.48 mg/kg
- MED ([6]; minimum effective dose): 10 mg/kg
- EC50 (TAAR1 receptor; cAMP agonist assay, cell line stably expressing TAAR1 receptor): 1.55 µM
- TAAR1 Max Act% (TAAR1 receptor; maximum activation rate relative to PEA positive control): 95.5%

From patent publication EP4596556A1, “SPIROCYCLIC DERIVATIVE-CONTAINING SALT OR CRYSTAL FORM, AND PREPARATION METHOD THEREFOR AND USE THEREOF” (Shujing Biopharma Co., Ltd, priority 2022, dated 2024)
